Measurements: paper PMC4316997, “Complex Structure and Biochemical Characterization of the Staphylococcus aureus Cyclic Diadenylate Monophosphate (c-di-AMP)-binding Protein PstA, the Founding Member of a New Signal Transduction Protein Family” (The Journal of Biological Chemistry, 2014)

Legend:
[1] = biological target: T1, PstA (PstASA, His-PstASA) (Staphylococcus aureus, UniProt A0A0H2XH20, N41A); experiment: biochemical
T1 construct: gene SAUSA300_0460

[2] = biological target: T2, PstA (PstASA, His-PstASA) (Staphylococcus aureus, UniProt A0A0H2XH20, K2A); experiment: biochemical
T2 construct: gene SAUSA300_0460

[3] = biological target: T3, PstA (PstASA, His-PstASA) (Staphylococcus aureus, UniProt A0A0H2XH20, T43A); experiment: biochemical
T3 construct: gene SAUSA300_0460

[4] = biological target: T4, PstA (PstASA, His-PstASA) (Staphylococcus aureus, UniProt A0A0H2XH20); experiment: DRaCALA, purified protein, […]-labelled ligand on nitrocellulose; format: binding
T4 construct: gene SAUSA300_0460; sites at monomer-monomer interfaces

[5] = biological target: T5, PstA (PstASA, His-PstASA) (Staphylococcus aureus, UniProt A0A0H2XH20, R67A); experiment: biochemical
T5 construct: gene SAUSA300_0460

[6] = biological target: T6, PstA (PstASA, His-PstASA) (Staphylococcus aureus, UniProt A0A0H2XH20, D12A); experiment: biochemical
T6 construct: gene SAUSA300_0460

[7] = biological target: N-terminally His-tagged PstA protein from S. aureus (His-PstASA) (S. aureus); experiment: SEC-MALS; 100 uM purified His-PstASA in 50 mM Tris-HCl pH 7.5, 200 mM NaCl, 5% glycerol; Superdex 10/300 column coupled to a multiangle laser light scattering detector

stoichiometry N [7] | Compound | Kd [1] [nM] | Kd [2] [nM] | Kd [3] [nM] | Kd [4] [nM] | Kd [5] [nM] | Kd [6] [nM]
 | Nc1ncnc2c1ncn2[C@@H]1O[C@@H]2COP(=O)(O)O[C@H]3[C@@H](O)[C@H](n4cnc5c(N)ncnc54)O[C@@H]3COP(=O)(O)O[C@H]2[C@H]1O [c-di-AMP] | 9600 ± 2300 | 340 ± 40 | 1800 ± 200 | 370 ± 30 | 480 ± 40 | 320 ± 50
3 | N-terminally His-tagged PstA protein from S. aureus (His-PstASA) (natural protein) |  |  |  |  |  | 
